Activity calls are given as the source filed them. The rule behind the calls is not given here.
Test: Inhibition of alpha-glucosidase at 0.1 mg/mL relative to 1-deoxynojirimycin

Row | inhibition | Activity | SMILES
1 | 20% |  | CC(=O)O[C@@H]1C=C2C(=O)OC[C@]2(O)[C@@]2(C)CCCC(C)(C)[C@H]12
2 | 46.2% |  | CC(=O)O[C@@H]1[C@@H](O)C2=C(C(=O)OC2)[C@@]2(C)CCCC(C)(C)[C@H]12
3 | 28.1% |  | CC(=O)O[C@@H]1[C@@H](Cl)C2=C(COC2=O)[C@@]2(C)CCCC(C)(C)[C@H]12
4 | 14.9% |  | CC(=O)O[C@@H]1[C@@H](O)C2=C(COC2=O)[C@@]2(C)CCCC(C)(C)[C@H]12
5 |  | inactive | CO[C@@H]1O[C@@H](OC)[C@@]2(O)C1=C[C@@H](OC(C)=O)[C@H]1C(C)(C)CCC[C@@]12C
6 | 2.1% |  | CC1(C)CCC[C@]2(C)[C@@H](C=O)C(C=O)=CC[C@@H]12
7 | 7.2% |  | CC1(C)CCC[C@@]2(C)[C@H]1[C@H](O)C=C1C(=O)OC[C@@]12O

Row | SMILES | inhibition | Activity
8 | CC(=O)O[C@@H]1C=C(C2O[C@@H]3OC(O)C4=C[C@@H](OC(C)=O)[C@H]5C(C)(C)CCC[C@]5(C)[C@]43O2)[C@](O)(C=O)[C@@]2(C)CCCC(C)(C)[C@H]12 (stereo partly drawn) | 83.7% | 

Source: ChEMBL document CHEMBL1144724, “Secondary metabolites of Cinnamosma madagascariensis and their alpha-glucosidase inhibitory properties” (J Nat Prod, 2008)
